From the METLIN SMRT retention time set (Domingo-Almenara et al. 2019) come the findings set out here.

Each structure is given as a SMILES string.

The nature of this data set: gradient 5% acetonitrile 3 min, to 50% in 2 min, to 85% in 15 min, held 3 min, 100 µL/min. As to conditions: column: Zorbax Extend-C18 2.1 x 50 mm; eluents: water / acetonitrile, 0.1% formic acid. The method, boiled down:
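Each retention time is based on an adduct peak selected computationally and verified by manual inspection. Measurements used HPLC–quadrupole time-of-flight mass spectrometry in positive and negative ionization mode on mixtures of ~100 pure standards. Chromatography ran on a Zorbax Extend-C18 column (2.1 × 50 mm, 1.8 μm) at 100 μL/min with water and acetonitrile, each containing 0.1% formic acid, and dead and dwell volumes of 40 μL and 900 μL.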
`Cc1cc2nn(CC(=O)N3CCCc4ccccc43)c(=O)n2c(Nc2ccc(F)cc2)n1` registered an RP-LC retention time of 1060 s.

The compound `C=CCn1c(=O)c(=O)n(Cc2ccc(C(=O)N3CCN(c4ncccn4)CC3)cc2)c2ccccc21` showed an RP-LC retention time of 722 s.

`O[C@@H]1C[C@@H](c2nnc3n2CCN(Cc2ccccn2)C3)N(Cc2ccccc2)C1` registered an RP-LC retention time of 537 s.

The compound `Cc1cccc(C(=O)NCCc2cn(CC(C)C)c3ncccc23)c1` registered an RP-LC retention time of 827 s.

Compound `CC1CCN(C(=O)c2ccc3c(=O)n4c(nc3c2)CCCC4)CC1` yielded an RP-LC retention time of 707 s.

`CC(C)(C)c1noc(-c2ccc(=O)n(Cc3ccc(Cl)cc3)n2)n1`: the RP-LC retention time is 1120 s.

The compound `CC(=O)N1CCc2cc(S(=O)(=O)C(C)CC(=O)N3CCN(c4ccc(Cl)cc4)CC3)ccc21` (stereo not drawn) came in with an RP-LC retention time of 870 s.

Consider `CCCN(C(=O)Nc1ccc(CC)cc1)c1nc(-c2ccc(Br)cc2)cs1`, for which the RP-LC retention time is 660 s.

For the compound `CCOc1nccnc1N1CCC(N(C)C(=O)c2ccsc2)C1` (stereo not drawn), the RP-LC retention time stood at 724 s.

Regarding `Cc1ccc(C)c(S(=O)(=O)Nc2ccc(N3CCN(c4ccccn4)CC3)c(C(=O)O)c2)c1`, the RP-LC retention time was found to be 660 s.

The compound `O=C(NCCNc1cc(-n2cccn2)ncn1)c1c[nH]c2ccccc12` yielded an RP-LC retention time of 646 s.

`COc1ccc2c(c1)C1(CCN(C(=O)c3cccc(Br)c3)C1)C(=O)N2` (stereo not drawn) registered an RP-LC retention time of 754 s.

In turn, `COc1ccc(OC)c(NC(=O)Cc2csc3nc(-c4ccc(OC)c(OC)c4)cn23)c1` displayed an RP-LC retention time of 738 s.

As for `COc1cccc(S(=O)(=O)N2CCCN(C)c3ccccc32)c1`, the RP-LC retention time turned out to be 976 s.

For `CCOC(=O)c1cnc2nc(C)ccc2c1Nc1cccc(Cl)c1F`, the RP-LC retention time amounted to 764 s.

`Cc1nc(-c2cc3cccc(C)c3nc2N2CCN(C)CC2)no1`: the RP-LC retention time is 665 s.

Consider `Cc1cc(C)cc(NC(=O)N2CCCC2c2nc(-c3ccccc3)no2)c1` (stereo not drawn), for which the RP-LC retention time is 922 s.

`COc1ccc(-c2nc(-c3ccc4oc(C)nc4c3)no2)cc1F`: the RP-LC retention time was 1080 s.

For `COc1ccc(N2CCN(S(=O)(=O)c3cc(-c4nc(C)cs4)cs3)CC2)cc1`, the RP-LC retention time came to 1070 s.

`CCCN1C(=O)CCc2cc(NS(=O)(=O)c3ccccc3C(F)(F)F)ccc21`: the RP-LC retention time is 860 s.

As to `CCC1=C(c2ccc(C)cc2)S(=O)(=O)N=C1N1CCC(C(=O)N(C)Cc2ccco2)CC1`, the RP-LC retention time turned out to be 894 s.

In turn, `Cc1cc(F)cc2c(=O)c3c([nH]c12)CCN(CC(=O)Nc1cccc(Cl)c1)C3` had an RP-LC retention time of 646 s.

For the compound `O=C(CSc1nc2ncccc2[nH]1)NC1CCCCC1`, the RP-LC retention time worked out at 621 s.

Consider `CCNC(=O)N1CCCN(S(=O)(=O)C(C)C)CC1`, for which the RP-LC retention time was found to be 614 s.

`Cc1ccc2nc(C(=O)NCc3ccc(F)cc3)cn2c1` yielded an RP-LC retention time of 645 s.

`CC(C)NC(=O)c1ccc(-c2nc3cc(NS(=O)(=O)c4cc(F)cc(F)c4)ccc3n2C)cc1` registered an RP-LC retention time of 718 s.

`CNCCC(Oc1ccccc1OC)c1ccccc1` (stereo not drawn): the RP-LC retention time is 734 s.

With `COc1ccc(F)c(F)c1C(=O)c1cnc(NC2CCN(S(C)(=O)=O)CC2)nc1N`, the RP-LC retention time was found to be 784 s.

`CC(=C/c1ccccc1)/C=C1/NC(=S)NC1=O` yielded an RP-LC retention time of 880 s.

In turn, `Cc1cc(C)c2c(-n3cccc3)nn(CC(=O)NC(C)CCc3ccccc3)c2n1` (stereo not drawn) yielded an RP-LC retention time of 1080 s.

As to `Cc1cc(NC(=O)C2CCN(C(=O)COc3ccccc3F)CC2)no1`, the RP-LC retention time came out at 696 s.

On to `O=C(NCc1ccc(F)cc1)Nc1c(-c2ccc(F)cc2)nc2ccccn12`, for which the RP-LC retention time came to 663 s.

On to `Cc1ccc(NC(=O)Cn2nc3n(c2=O)CCCCC3)c(C)c1`, for which the RP-LC retention time was found to be 703 s.
